Measured values from BigSolDB 2.1.

C[C@H]1[C@H](C)CC[C@]2(C(=O)O)CC[C@]3(C)C(=CC[C@@H]4[C@@]5(C)CC[C@H](O)C(C)(C)[C@@H]5CC[C@]43C)[C@H]12
solubility (mole fraction)
Conditions	293.6 K	300.1 K	305.2 K	310 K	320.1 K	323.2 K	329.7 K
in ethanol	0.000514	0.000766	0.000735	0.000761	0.00105	0.00105	0.00116
in ethyl acetate	0.000777	0.000771	0.00101	0.00113	0.00155	0.00162	0.00186
in isopropanol	0.00144	0.00181	0.00197	0.00213	0.00273	0.00275	0.00295
in methanol	0.000723	0.000851	0.000931	0.00102	0.00133	0.00132	0.00146
